These results are taken from patent US10894784B2, “Heteroarylbenzimidazole compounds” (BAYER PHARMA AKTIENGESELLSCHAFT, priority 2015, dated 2021).

Structures are written as SMILES.

The first assay deals with TBK1 (Homo sapiens (Human), UniProt Q9UHD2). The experiment in a line: TBK1 low ATP kinase assay (in vitro assay 1). The format is biochemical. Conditions: TBK1 low ATP kinase assay IC50, in vitro assay 1.
Sequence of TBK1 (Q9UHD2 whole entry): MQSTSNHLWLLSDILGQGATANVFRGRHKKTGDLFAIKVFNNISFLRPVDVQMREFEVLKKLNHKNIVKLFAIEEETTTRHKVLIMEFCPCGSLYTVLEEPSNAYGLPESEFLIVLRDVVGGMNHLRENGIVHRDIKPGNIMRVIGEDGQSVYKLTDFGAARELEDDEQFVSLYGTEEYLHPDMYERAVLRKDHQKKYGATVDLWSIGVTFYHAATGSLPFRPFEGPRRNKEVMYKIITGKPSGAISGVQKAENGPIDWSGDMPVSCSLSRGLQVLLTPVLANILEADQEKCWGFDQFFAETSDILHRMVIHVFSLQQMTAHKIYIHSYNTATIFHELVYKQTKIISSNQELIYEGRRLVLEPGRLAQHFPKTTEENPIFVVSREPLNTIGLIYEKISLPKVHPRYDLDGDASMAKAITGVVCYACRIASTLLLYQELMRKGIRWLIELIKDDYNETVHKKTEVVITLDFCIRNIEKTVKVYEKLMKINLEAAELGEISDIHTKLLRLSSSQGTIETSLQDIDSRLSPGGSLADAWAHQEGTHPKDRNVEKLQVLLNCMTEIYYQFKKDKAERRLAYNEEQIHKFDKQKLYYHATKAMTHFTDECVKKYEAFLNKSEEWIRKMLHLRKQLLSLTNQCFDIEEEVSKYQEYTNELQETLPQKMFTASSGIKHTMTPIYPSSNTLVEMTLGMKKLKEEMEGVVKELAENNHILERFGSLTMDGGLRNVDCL
For orientation: IC50 means the point on the concentration scale where inhibition reaches its midpoint. As to `Cc1noc(-c2ccc3nc(Nc4cc(C(C)N5CCN(C(=O)CC(F)(F)F)CC5)ccn4)[nH]c3c2)n1` (racemic) [Example 16.05.02, (rac)-3,3,3-trifluoro-1-{4-[1-(2-{[6-(3-methyl-1,2,4-oxadiazol-5-yl)-1H-benzimidazol-2-yl]amino}pyridin-4-yl)ethyl]piperazin-1-yl}propan-1-one], the IC50 stood at 33 nM.

Still in this assay, the particulars now being: in vitro assay 1, read-out: TBK1 low ATP kinase assay IC50.
On to `Cc1noc(-c2ccc3nc(Nc4cc(CN5CCN(C(=O)c6ccco6)CC5)ccn4)[nH]c3c2)n1` [Example 101.14, furan-2-yl{4-[(2-{[6-(3-methyl-1,2,4-oxadiazol-5-yl)-1H-benzimidazol-2-yl]amino}pyridin-4-yl)methyl]piperazin-1-yl}methanone], for which the IC50 worked out at 430 nM. Consider `CCOc1nccc(-c2ccc3nc(Nc4cc(CN5CCN(C(=O)C6CCC6)CC5)ccn4)[nH]c3c2)n1` [Example 26.01.04, cyclobutyl{4-[(2-{[6-(2-ethoxypyrimidin-4-yl)-1H-benzimidazol-2-yl]amino}pyridin-4-yl)methyl]piperazin-1-yl}methanone], for which the half-inhibitory concentration (IC50) stood at 11.6 nM. Still for that read-out and setting: the figure for `COc1nccc(-c2ccc3nc(Nc4cc(CN5CCN(C(=O)CC6CC6)CC5)ccn4)[nH]c3c2)n1` [Example 25.01.03, 2-cyclopropyl-1-{4-[(2-{[6-(2-methoxypyrimidin-4-yl)-1H-benzimidazol-2-yl]amino}pyridin-4-yl)methyl]piperazin-1-yl}ethanone] is 96.7 nM; for `COc1c(-c2ccc3nc(Nc4cc(C(C)N5CCN(C(=O)CC(F)(F)F)CC5)ccn4)[nH]c3c2)ncnc1N1CCC1` (single isomer, unassigned) [Example 111.03, 1-(4-{(1R or 1S)-1-[2-({6-[6-(azetidin-1-yl)-5-methoxypyrimidin-4-yl]-1H-benzimidazol-2-yl}amino)pyridin-4-yl]ethyl}piperazin-1-yl)-3,3,3-trifluoropropan-1-one] it is 1.4 nM; for `O=C(C1CC1)N1CCN(Cc2ccnc(Nc3nc4ccc(-c5ncnc(NCC6CCC6)c5F)cc4[nH]3)c2)CC1` [Example 191.03] it is 94.8 nM. As for `COc1c(OCC2CC2)ncnc1-c1ccc2nc(Nc3cc(CN4CCN(C(=O)CC(F)(F)F)CC4)ccn3)[nH]c2c1` [Example 65.01.02, 1-(4-{[2-({6-[6-(cyclopropylmethoxy)-5-methoxypyrimidin-4-yl]-1H-benzimidazol-2-yl}amino)pyridin-4-yl]methyl}piperazin-1-yl)-3,3,3-trifluoropropan-1-one], the IC50 was 58.4 nM. For the compound `CCN(CC)c1cc(-c2ccc3nc(Nc4cc(CN5CCN(C(=O)CC(F)(F)F)CC5)ccn4)[nH]c3c2)ncn1` [Example 155.02, 1-(4-{[2-({6-[6-(diethylamino)pyrimidin-4-yl]-1H-benzimidazol-2-yl}amino)pyridin-4-yl]methyl}piperazin-1-yl)-3,3,3-trifluoropropan-1-one], the IC50 was 15 nM. As to `Cn1cc(-c2ccc3nc(Nc4cc(CN5CCN(C(=O)C6CC6)CC5)ccn4)[nH]c3c2)cn1` [Example 37.03, cyclopropyl{4-[(2-{[6-(1-methyl-1H-pyrazol-4-yl)-1H-benzimidazol-2-yl]amino}pyridin-4-yl)methyl]piperazin-1-yl}methanone], the IC50 stood at 52.7 nM. Take `CC(C)N(C)c1cc(-c2ccc3nc(Nc4cc(CN5CCN(C(=O)OC(C)(C)C)CC5)ccn4)[nH]c3c2)ncn1` [Example 153.01, tert-butyl 4-({2-[(6-{6-[methyl(propan-2-yl)amino]pyrimidin-4-yl}-1H-benzimidazol-2-yl)amino]pyridin-4-yl}methyl)piperazine-1-carboxylate]: the IC50 came to 14 nM. Still for that read-out and setting: with `COc1cc(-c2ccc3nc(Nc4cc(C(C)N5CCN(C(=O)C6CC6)CC5)ccn4)[nH]c3c2)ncn1` (single isomer, unassigned) [Example 34.03.02.A, cyclopropyl{4-[(1R or 1S)-1-(2-{[6-(6-methoxypyrimidin-4-yl)-1H-benzimidazol-2-yl]amino}pyridin-4-yl)ethyl]piperazin-1-yl}methanone] the figure was 46.4 nM.
